# US12209096B2, “Compounds and compositions for inducing chondrogenesis” (NOVARTIS AG, priority 2017, dated 2025)
# pEC50: −log10 of the molar value. Like-named read-outs stand apart in the source and are kept apart here.
# Tested on: NHACs
# Test: calcium flux assay
# Format: cell-based, human
# Settings: for Emax: read-out: (A) % Efficacy
# Experimental: NHACs were plated in 1536 Greiner plate at 2000 cells/well in 4 ul volume. 24 hours later, 4 ul of Calcium 5 dye solution (Hank's Balanced Salt/HEPES buffer containing 5 mM of Probenecid) was then added and incubated for 1 hour at room temperature. Fluorescence readings at excitation wavelength of 470-495 nm and emission wavelength of 515-575 nm were done using FLIPR high-throughput screening system (Molecular Devices, Sunnyvale, CA). The test compound was then added to each well at the indicated dose. Signal was measured prior compound dispense and after using a first interval of 1 second for 60 reads and second interval of 3 second for 20 reads. Data was analyzed using Molecular Devices ScreenWorks® Software.
Compound,pEC50 (Homo sapiens),Emax (Homo sapiens),(A) % Efficacy,pEC50
"O=C(Nc1cnc(Cl)c(Cl)c1)[C@@H]1[C@H]2O[C@H]([C@@H]3C[C@@H]32)[C@H]1c1ccnc(F)c1F (single isomer, unassigned) [Example 73]",4.80,127%,–,–
"O=C(Nc1ccc(Cl)c(Cl)c1)[C@H]1[C@@H](c2cccc(C(F)(F)F)n2)[C@H]2O[C@@H]1C[C@@H]2O [Example 50, (1R,2S,3S,4R,5S)—N-(3,4-dichlorophenyl)-5-hydroxy-3-(6-(trifluoromethyl)pyridin-2-yl)-7-oxabicyclo[2.2.1]heptane-2-carboxamide]",4.68,308%,–,–
"O=C(Nc1ccc(Cl)c(Cl)c1)[C@H]1[C@@H](c2cnc(C(F)(F)F)nc2)[C@H]2O[C@@H]1C[C@@H]2O [Example 62, (1R,2S,3S,4R,5S)—N-(3,4-dichlorophenyl)-5-hydroxy-3-(2-(trifluoromethyl)pyrimidin-5-yl)-7-oxabicyclo[2.2.1]heptane-2-carboxamide]",5.09,61%,–,–
"Cc1cc([C@H]2[C@H]3O[C@H]([C@@H]4C[C@@H]43)[C@@H]2C(=O)Nc2cccc(C(F)(F)F)c2)ccn1 (racemic) [Example 121, rac-(1S,2S,4R,5R,6R,7S)-7-(2-methylpyridin-4-yl)-N-(3-(trifluoromethyl)phenyl)-8-oxatricyclo[3.2.1.0^2,4]octane-6-carboxamide]",4.59,353%,–,–
"Cc1cc([C@@H]2[C@@H](C(=O)Nc3ccc(Cl)c(Cl)c3)[C@@H]3O[C@H]2C[C@@H]3F)ccn1 (single isomer, unassigned) [Example 93]",< 4.30,7%,–,–
"O=C(Nc1cnc(Cl)c(Cl)c1)[C@H]1[C@@H](c2ccncc2)[C@H]2O[C@@H]1C[C@@H]2O (single isomer, unassigned) [Example 10a]",< 4.30,55%,–,–
"Cc1ccc([C@@H]2[C@@H](C(=O)Nc3ccc(Cl)c(Cl)c3)[C@@H]3O[C@H]2C[C@H]3F)cn1 [Example 116, (1S,2R,3S,4S,6R)—N-(3,4-dichlorophenyl)-6-fluoro-3-(6-methylpyridin-3-yl)-7-oxabicyclo[2.2.1]heptane-2-carboxamide]",4.64,58%,–,–
"O=C(Nc1ccc(Cl)c(Cl)c1)[C@H]1[C@H]2O[C@H]([C@@H]3C[C@@H]32)[C@H]1c1cncnc1 (single isomer, unassigned) [Example 28]",4.64,167%,–,–
"COc1cc([C@@H]2[C@@H](C(=O)Nc3ccc(Cl)c(Cl)c3)[C@@H]3O[C@H]2C[C@H]3F)ccn1 [Example 104, (1S,2R,3S,4S,6R)—N-(3,4-dichlorophenyl)-6-fluoro-3-(2-methoxypyridin-4-yl)-7-oxabicyclo[2.2.1]heptane-2-carboxamide]",4.85,96%,–,–
"O=C(Nc1ccc(Cl)c(Cl)c1)[C@@H]1[C@@H](c2ccncc2)[C@H]2O[C@@H]1C[C@@H]2O [Example 150, (1R,2R,3S,4R,5S)—N-(3,4-dichlorophenyl)-5-hydroxy-3-(pyridin-4-yl)-7-oxabicyclo[2.2.1]heptane-2-carboxamide]",< 4.30,5%,–,–
"Cc1cc([C@H]2[C@H]3O[C@H](C[C@@H]3O)[C@@H]2C(=O)Nc2cnc(C)c(Cl)c2)ccn1 [Example 81, (1R,2R,3S,4R,5S)—N-(5-chloro-6-methylpyridin-3-yl)-5-hydroxy-3-(2-methylpyridin-4-yl)-7-oxabicyclo[2.2.1]heptane-2-carboxamide]",5.57,34%,–,–
"Cc1cc([C@H]2[C@H]3O[C@H](C[C@@H]3O)[C@H]2C(=O)Nc2cnc(Cl)c(Cl)c2)ccn1 [Example 6, (1R,2S,3S,4R,5S)-N-(5,-6-dichloropyridin-3-yl)-5-hydroxy-3-(2-methylpyridin-4-yl)-7-oxabicyclo[2.2.1]heptane-2-carboxamide]",–,–,17%,< 4.30
"(1R,2S,3S,4R,5S)-N-(5,6-dichloropyridin-3-yl)-5-hydroxy-3-(pyridin-4-yl)-7-oxabicyclo[2.2.1]heptane-2-carboxamide [Example 10]",–,–,0%,< 4.30
"O=C(Nc1cnc(Cl)c(Cl)c1)[C@@H]1[C@@H](c2ccncc2)[C@H]2O[C@@H]1C[C@@H]2O [Example 87, (1R,2R,3S,4R,5S)—N-(5,6-dichloropyridin-3-yl)-5-hydroxy-3-(pyridin-4-yl)-7-oxabicyclo[2.2.1]heptane-2-carboxamide]",< 4.30,14%,–,–

# Now from value to compound, other results behind:
pEC50 (Homo sapiens),Compound,Emax (Homo sapiens),(A) % Efficacy,pEC50
< 4.30,"COc1cc([C@@H]2[C@@H]3O[C@@H](C[C@H]3O)[C@@H]2C(=O)Nc2ccc(Cl)c(Cl)c2)ccn1 (single isomer, unassigned) [Example 49b]",31%,–,–
< 4.30,"O=C(Nc1cccc(C(F)(F)F)c1)[C@@H]1[C@@H]2O[C@@H]([C@H]3C[C@H]32)[C@@H]1c1cncnc1 [Example 37, (1S,2S,4R,5R,6S,7S)-7-(pyrimidin-5-yl)-N-(3-(trifluoromethyl)phenyl)-8-oxatricyclo[3.2.1.0^2,4]octane-6-carboxamide]",26%,–,–
4.70,"Cc1cc([C@H]2[C@H]3O[C@H]([C@@H]4C[C@@H]43)[C@@H]2C(=O)Nc2ccc(Cl)c(C#N)c2)ccn1 [Example 66, (1S,2S,4R,5R,6R,7S)—N-(4-chloro-3-cyanophenyl)-7-(2-methylpyridin-4-yl)-8-oxatricyclo[3.2.1.0^2,4]octane-6-carboxamide]",179%,–,–
< 4.30,"Cc1cc([C@H]2[C@H]3O[C@H](C[C@@H]3F)[C@H]2C(=O)Nc2cnc(Cl)c(Cl)c2)ccn1 [Example 18, (1R,2S,3S,4R,5S)-N-(5,6-dichloropyridin-3-yl)-5-fluoro-3-(2-methylpyridin-4-yl)-7-oxabicyclo[2.2.1]heptane-2-carboxamide]",0%,–,–
4.82,"O=C(Nc1ccc(Cl)c(Cl)c1)[C@@H]1[C@@H](c2cccc(C(F)(F)F)n2)[C@H]2O[C@@H]1C[C@@H]2O [Example 140, (1R,2R,3S,4R,5S)—N-(3,4-dichlorophenyl)-5-hydroxy-3-(6-(trifluoromethyl)pyridin-2-yl)-7-oxabicyclo[2.2.1]heptane-2-carboxamide]",292%,–,–
4.80,"CN(C)[C@@H]1C[C@H]2O[C@@H]1[C@H](c1ccnc(F)c1)[C@H]2C(=O)Nc1ccc(Cl)c(Cl)c1 [Example 172, (1R,2R,3S,4R,5R)—N-(3,4-dichlorophenyl)-5-(dimethylamino)-3-(2-fluoropyridin-4-yl)-7-oxabicyclo[2.2.1]heptane-2-carboxamide]",177%,–,–
4.66,"Cc1cc([C@@H]2[C@@H]3O[C@@H]([C@H]4C[C@H]43)[C@H]2C(=O)Nc2cccc(C(F)(F)F)c2)ccn1 (single isomer, unassigned) [Example 121b]",92%,–,–
< 4.30,"Nc1ncc([C@H]2[C@H]3O[C@H](C[C@@H]3O)[C@H]2C(=O)Nc2ccc(Cl)c(Cl)c2)cn1 [Example 60, (1R,2S,3S,4R,5S)-3-(2-aminopyrimidin-5-yl)-N-(3,4-dichlorophenyl)-5-hydroxy-7-oxabicyclo[2.2.1]heptane-2-carboxamide]",2%,–,–
4.54,"CN(C)[C@@H]1C[C@H]2O[C@@H]1[C@H](c1ccnc(F)c1)[C@H]2C(=O)Nc1cnc(Cl)c(Cl)c1 [Example 175, (1R,2R,3S,4R,5R)—N-(5,6-dichloropyridin-3-yl)-5-(dimethylamino)-3-(2-fluoropyridin-4-yl)-7-oxabicyclo[2.2.1]heptane-2-carboxamide]",186%,–,–
< 4.30,"Cc1cc([C@@H]2[C@@H]3O[C@@H]([C@H]4C[C@H]43)[C@@H]2C(=O)Nc2ccc(Cl)c(Cl)c2)ccn1 (single isomer, unassigned) [Example 23b]",0%,–,–
4.66,"Cc1ccc([C@H]2[C@H]3O[C@H](C[C@@H]3O)[C@H]2C(=O)Nc2ccc(Cl)c(Cl)c2)cn1 [Example 48, (1R,2S,3S,4R,5S)—N-(3,4-dichlorophenyl)-5-hydroxy-3-(6-methylpyridin-3-yl)-7-oxabicyclo[2.2.1]heptane-2-carboxamide]",80%,–,–
< 4.30,"O=C(Nc1ccc(Cl)c(Cl)c1)[C@@H]1[C@@H]2O[C@@H]([C@H]3C[C@H]32)[C@@H]1c1cnc(N2CCOCC2)nc1 [Example 40, (1S,2S,4R,5R,6S,7S)—N-(3,4-dichlorophenyl)-7-(2-morpholinopyrimidin-5-yl)-8-oxatricyclo[3.2.1.0^2,4]octane-6-carboxamide]",37%,–,–
4.52,"Nc1ncc([C@@H]2[C@@H](C(=O)Nc3ccc(Cl)c(Cl)c3)[C@@H]3O[C@H]2C[C@H]3F)cn1 [Example 114, (1S,2R,3S,4S,6R)-3-(2-aminopyrimidin-5-yl)-N-(3,4-dichlorophenyl)-6-fluoro-7-oxabicyclo[2.2.1]heptane-2-carboxamide]",127%,–,–
< 4.30,"O=C(Nc1cccc(C(F)(F)F)c1)[C@H]1[C@@H]2O[C@@H](C[C@H]2O)[C@@H]1c1ccncc1 [Example 89, (1S,2R,3S,4S,6R)-6-hydroxy-3-(pyridin-4-yl)-N-(3-(trifluoromethyl)phenyl)-7-oxabicyclo[2.2.1]heptane-2-carboxamide]",0%,–,–
< 4.30,"CN(C)c1ncc([C@H]2[C@H]3O[C@H](C[C@@H]3O)[C@H]2C(=O)Nc2ccc(Cl)c(Cl)c2)cn1 [Example 55, (1R,2S,3S,4R,5S)—N-(3,4-dichlorophenyl)-3-(2-(dimethylamino)pyrimidin-5-yl)-5-hydroxy-7-oxabicyclo[2.2.1]heptane-2-carboxamide]",0%,–,–
< 4.30,"O=C(Nc1ccc(Cl)c(Cl)c1)[C@H]1[C@@H]2O[C@@H]([C@@H](O)[C@H]2O)[C@@H]1c1ccncc1 [Example 160, (1S,2R,3S,4R,5S,6R)—N-(3,4-dichlorophenyl)-5,6-dihydroxy-3-(pyridin-4-yl)-7-oxabicyclo[2.2.1]heptane-2-carboxamide]",32%,–,–
